Patent publication US20100298214A1, “TREATMENT OF AUTOIMMUNE DISEASE” (MASSACHUSETTS INSTITUTE OF TECHNOLOGY, priority 2007, published 2010)

Legend:
[1] = test system: sublethally irradiated male NOD mice; details: Aboumrad et al., 2007; cited from earlier work
NOD mice [2] = test: Diabetes incidence monitored by urine glucose level; assay type: in vivo, mouse
Description: NOD mice were obtained from Taconic Farms. […] BALB/c mice were purchased from Jackson Laboratory. EA16NOD mice were obtained from Drs. Diane Mathis and Christopher Benoist. […] All mice were kept under specific pathogen free facilities.
To test whether continuous AMD3100 treatment can inhibit the development of diabetes, prediabetic NOD mice (15 weeks of age) were given AMD3100 daily for 14 weeks. PBS-treated NOD mice started to show evidence of diabetes at 16 weeks of age, and by 29 weeks of age, all mice developed diabetes (FIG. 8D).

prediabetic NOD mice [3] = details: daily for 8 days (FIGS. 8A and 8B)
Experimental: (§1) NOD mice were obtained from Taconic Farms. Female NOD mice were used in all the studies and monitored for diabetes by checking urine glucose levels at least two times per week, starting around 12 weeks of age. Mice were considered diabetic when urinary glucose level reached 500 mg/dl, as measured with Diastix (Bayer Diagnostics). […] BALB/c mice were purchased from Jackson Laboratory. EA16NOD mice were obtained from Drs. Diane Mathis and Christopher Benoist. Cxcr4^fif Lck-Cre mice and littermate Cxcr4^−if Lck-Cre were on the mixed 129/C57BL/6 background and were generated by breeding Cxcr4^+if Lck-Cre mice. All mice were kept under specific pathogen free facilities. For AMD3100 treatment, prediabetic NOD mice were given AMD3100 (5 mg/kg) subcutaneously daily for the indicated lengths of time. For analysis of T cell distribution, mice were sacrificed at 2 hours after the last AMD3100 injection.

prediabetic NOD mice [4] = test system: prediabetic NOD mice
Experimental: as §1
Single-cell suspensions were prepared from the spleen, lymph nodes (e.g., superficial cervical, brachial, axillary, inguinal, mesenteric, and pancreas-draining lymph nodes), and bone marrow (e.g., obtained by flushing two femurs and two tibias with cold RPMI 1640 medium containing 5% fetal calf serum [FCS]). All staining antibodies were purchased from BDbioscience, except anti-Foxp3, lineage markers (Lin), and c-Kit and Sea-1, which were from E-bioscience, Stem Cell Technologies, and Biolegend, respectively. Cells were stained in the presence of 2.5 μg/ml anti-FcR antibody in PBS containing 0.1% BSA and 0.1% NaN3 and analyzed on a FACScaliber or a LSR II or a FACSAria, collecting 10,000 to 1,000,000 live cells per sample. Analyses were carried out with Flowjo software. For analysis of LSK cells, 10% of total cells with low level of lineage marker expression were gated for further analysis of Sca-1 versus c-Kit expression profiles. Intracellular staining of Foxp3 and Ki67 was performed according to the manufacturer's instruction.
AMD3100 is a small molecule antagonist of CXCR4 (De Clercq, 2003, supra; incorporated herein by reference). […] Thus, prediabetic NOD mice were given AMD3100 (5 mg/kg) daily for 8 days, and the distribution and phenotype of T cells in their bone marrow were assayed.

NOD mice [5] = details: cited from earlier work
CXCR4 = target: T1, CXCR4 (Homo sapiens, UniProt P61073); details: induction of internalization after binding; Liu et al., 2004; cited from earlier work
T1 construct: endogenous in cells; host or cells: human peripheral mononuclear cells (PBMCs)

[6] = treatment for 8 days (FIG. 10G)
[7] = treatment for 8 days (FIG. 10H)

T1 sequence (P61073 whole entry): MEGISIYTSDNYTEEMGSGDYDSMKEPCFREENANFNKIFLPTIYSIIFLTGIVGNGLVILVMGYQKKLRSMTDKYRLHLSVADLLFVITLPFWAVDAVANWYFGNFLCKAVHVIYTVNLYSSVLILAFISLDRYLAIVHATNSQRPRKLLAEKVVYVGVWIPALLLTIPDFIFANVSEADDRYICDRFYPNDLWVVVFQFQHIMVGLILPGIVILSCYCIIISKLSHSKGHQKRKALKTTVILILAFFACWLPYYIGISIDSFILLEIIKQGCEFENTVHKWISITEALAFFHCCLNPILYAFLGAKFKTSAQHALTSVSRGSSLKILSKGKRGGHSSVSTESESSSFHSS

Cl.Cl.Cl.Cl.Cl.Cl.Cl.Cl.O.O.c1cc(CN2CCCNCCNCCCNCC2)ccc1CN1CCCNCCNCCCNCC1 [AMD3100, 1,1′-[1,4-phenylenebis(methylene)]-bis-1,4,8,11-tetraazacyclotetradecane octahydrochloride dihydrate]
diabetes development in the transfer model [1]: promotes | time after termination of treatment at which mice began to develop diabetes (NOD mice [2]; after three weeks of daily treatment): two weeks | diabetes incidence after termination of treatment (NOD mice [2]; by 26 weeks of age, three weeks of daily treatment, same level as PBS-treated mice): 70% | mice that developed diabetes during continuous treatment (NOD mice [2]; daily for 14 weeks from 15 weeks of age, up to 29 weeks of age (FIG. 8D)): none | mice that developed diabetes during treatment (NOD mice [2]; daily for three weeks from 15-16 weeks of age, period between 17 and 20 weeks of age (FIG. 8C)): none | lymphocyte infiltration into the islets (insulitis) (prediabetic NOD mice [3]; prediabetic NOD mice 15 weeks of age): significantly reduced | peri-insulitis (prediabetic NOD mice [3]; prediabetic NOD mice): without affecting | proportion of CD4 T cells with the naïve phenotype (CD45RB^hi CD44^lo) in bone marrow (prediabetic NOD mice [4]; 5 mg/kg daily for 8 days (FIG. 5B)): preferentially reduced | proportion of both CD4 and CD8 T cells in the bone marrow (prediabetic NOD mice [4]; 5 mg/kg daily for 8 days, compared to PBS (FIG. 5A)): significantly reduced | percentage of HSC in the bone marrow (prediabetic NOD mice [4]; 8 days, compared to PBS-treated NOD mice, p=0.06 (FIG. 10D)): reduced | percentage of T cells that proliferated in the spleen and pancreas-draining lymph nodes (prediabetic NOD mice [4]; AMD3100 treatment of NOD mice): did not significantly affect | distribution of NKT cells, dendritic cells, or B cells (prediabetic NOD mice [4]; NOD mice following AMD3100 treatment (FIG. 6)): nor any change | percentages (mean±SE) of CD45RB^hi CD44^lo naïve T cells among TCR+CD4+ cells (prediabetic NOD mice [4]; bone marrow, prediabetic NOD mice 15-16 weeks of age, daily for 8 days, n=4, p<0.01 vs PBS): 24.8±3.2% | NKT cell distribution in various organs (prediabetic NOD mice [4]; prediabetic NOD mice, 8 days (FIG. 6)): does not affect | number of HSCs (Lin-Sca1+c-Kit+) in the bone marrow (prediabetic NOD mice [4]; treatment for 8 days (FIG. 7C)): significantly reduced | percentage of Foxp3+CD4+ Treg cells in the bone marrow (prediabetic NOD mice [4]; [6]): increased | percentages of Tregs in the pancreas-draining lymph node (PDLN) (prediabetic NOD mice [4]; [6]): increased significantly | percentages of Tregs in the spleen (prediabetic NOD mice [4]; [6]): increased significantly | number of Tregs in the spleen (prediabetic NOD mice [4]; [7]): increased significantly | total number of Tregs in the bone marrow (prediabetic NOD mice [4]; [7]): decreased

CXCL12: chemokine (C-X-C motif) ligand 12, administered systemically (Yano et al., 2007)
diabetes on systemic administration (NOD mice [5]; Yano et al., 2007): ameliorates

G-CSF: granulocyte colony-stimulating factor, a known suppressor of CXCL12 expression
insulitis and diabetes (NOD mice [5]; NOD mice, literature): reduced | onset of type I diabetes (NOD mice [5]; NOD mice, literature): significantly delays

O=C1c2c(O)cc(O)cc2O[C@H](c2cc(O)c(O)c(O)c2)[C@H]1O [ampelopsin]
CXCR4 on the surface of human peripheral mononuclear cells (PBMCs) (CXCR4): decrease
